Data from patent US11667651B2, “Aminopyridine derivatives as phosphatidylinositol phosphate kinase inhibitors” (HiberCell, Inc., priority 2017, dated 2023).
pIC50: −log10 of the molar value.

biological target: T1, PIP4K2A (Homo sapiens, UniProt P48426); assay: Kinase Assay PIP4K2 A (Table 2); type: biochemical; parameters: 4 nM PIP4K2A (full length protein, SignalChem); purchased SignalChem; details: compounds listed under IC50 bins
T1 sequence (P48426 1-406): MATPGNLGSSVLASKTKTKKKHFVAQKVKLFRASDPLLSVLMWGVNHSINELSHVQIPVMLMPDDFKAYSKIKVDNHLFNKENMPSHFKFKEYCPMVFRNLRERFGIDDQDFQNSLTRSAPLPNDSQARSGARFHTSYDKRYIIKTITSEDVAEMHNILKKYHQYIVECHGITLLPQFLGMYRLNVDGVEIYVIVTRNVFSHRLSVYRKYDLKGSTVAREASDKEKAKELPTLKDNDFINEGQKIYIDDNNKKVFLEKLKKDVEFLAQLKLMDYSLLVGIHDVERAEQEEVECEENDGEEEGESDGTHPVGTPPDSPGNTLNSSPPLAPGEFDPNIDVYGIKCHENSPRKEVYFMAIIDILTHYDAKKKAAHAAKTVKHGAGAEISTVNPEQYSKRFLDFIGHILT
Procedure: Dilution series of the compounds were prepared in DMSO at 100 times the final assay concentration (n1=n0/3 in 10 points). The compounds were further diluted to three times the assay concentration in assay buffer (20 mM MOPS pH 7.2, 25 mM magnesium chloride, 0.005% Tween 20). 6 μL of the diluted compounds were added to a 384 well assay plate followed by 9 μL of a mix consisting of 4 nM PIP4K2A (full length protein, SignalChem) and 100 μM PI(5)P diC8 (Tebu-Bio). Enzyme and compounds were pre-incubated at room temperature for 15 minutes.
Then 3 μL of a solution containing 60 μM ATP (Promega) in assay buffer was added to the wells containing compound and enzyme and mixing was performed by pipetting several times. The reaction was incubated at room temperature for 1 h. Then 18 μL of ADP-Glo™ Reagent (Promega) was added to stop the kinase reaction and deplete the unconsumed ATP, mixing was performed by pipetting several times. The plate was incubated at room temperature for 40 minutes before addition of 36 μL of Kinase Detection Reagent (Promega) to convert ADP to ATP and introduce luciferase and luciferin to detect ATP. The reaction was incubated at room temperature for 40 minutes before the luminescence was measured in a in a Victor 3V 1420 multilabel counter (Perkin Elmer).
Percent inhibition of the compounds as compared to dimethyl sulfoxide treated control samples was calculated. Compound concentration versus percent inhibition were fitted to generate IC50 values.

Row | SMILES | pIC50
1 | CN(C)C(=O)c1ccc(-c2ccc(Nc3cccnc3)nc2)cc1 [Example 1, N,N-dimethyl-4-(6-(pyridin-3-ylamino)pyridin-3-yl)benzamide] | 6.00 to 7.00
2 | CN(C)C(=O)c1ccc(-c2ccc(Nc3cccnc3)nc2)cn1 [Example 3, N,N-dimethyl-6′-(pyridin-3-ylamino)-[3,3′-bipyridine]-6-carboxamide] | < 6.00
3 | CN(C)C(=O)C#Cc1ccc(Nc2cccnc2)nc1 [Example 4, N,N-dimethyl-3-(6-(pyridin-3-ylamino)pyridin-3-yl)propiolamide] | < 6.00
4 | CN(C)C(=O)c1ccc(-c2ccc(Nc3cccnc3)nc2)s1 [Example 5, N,N-dimethyl-5-(6-(pyridin-3-ylamino)pyridin-3-yl)thiophene-2-carboxamide] | < 6.00
5 | CN(C)C(=O)[C@H]1CC[C@H](c2ccc(Nc3cccnc3)nc2)CC1 [Example 7, (r,4r)-N,N-dimethyl-4-(6-(pyridin-3-ylamino)pyridin-3-yl)cyclohexane-1-carboxamide] | < 6.00
6 | CN(C)C(=O)[C@H]1CC[C@@H](c2ccc(Nc3cccnc3)nc2)CC1 [Example 8, (1s,4s)-N,N-dimethyl-4-(6-(pyridin-3-ylamino)pyridin-3-yl)cyclohexane-1-carboxamide] | < 6.00
7 | CN(C)C(=O)c1ccc(-c2ccc(Nc3cccnc3)nc2)nc1 [Example 9, N,N-dimethyl-6′-(pyridin-3-ylamino)-[2,3′-bipyridine]-5-carboxamide] | < 6.00
8 | Cc1cc(-c2ccc(Nc3cccnc3)nc2)ccc1C(=O)N(C)C [Example 10, N,N,2-trimethyl-4-(6-(pyridin-3-ylamino)pyridin-3-yl)benzamide] | < 6.00
9 | O=C(c1ccc(-c2ccc(Nc3cccnc3)nc2)cc1)N1CCC1 [Example 11, azetidin-1-yl(4-(6-(pyridin-3-ylamino)pyridin-3-yl)phenyl)methanone] | 7.00 to 8.00
10 | CN(C)C(=O)c1cc(F)c(-c2ccc(Nc3cncc(N4CCCC4=O)c3)nc2)cc1F [Example 14, 2,5-difluoro-N,N-dimethyl-4-(6-((5-(2-oxopyrrolidin-1-yl)pyridin-3-yl)amino)pyridin-3-yl)benzamide] | 6.00 to 7.00
11 | CCc1cc(Nc2cccnc2)ncc1-c1ccc(C(=O)N(C)C)cc1 [Example 17, 4-(4-ethyl-6-(pyridin-3-ylamino)pyridin-3-yl)-N,N-dimethylbenzamide] | 6.00 to 7.00
12 | CN(C)C(=O)c1ccc(-c2cnc(Nc3cccnc3)cn2)cc1 [Example 18, N,N-dimethyl-4-(5-(pyridin-3-ylamino)pyrazin-2-yl)benzamide] | 6.00 to 7.00
13 | CN(C)C(=O)c1ccc(-c2ccc(Nc3cncc(N(C)S(=O)(=O)C4CC4)c3)nc2)cc1 [Example 25, N,N-dimethyl-4-(6-((5-(N-methylcyclopropanesulfonamido)pyridin-3-yl)amino)pyridin-3-yl)benzamide] | 7.00 to 8.00
14 | CC(C)S(=O)(=O)N(C)c1cncc(Nc2ccc(-c3ccc(C(=O)N(C)C)cc3)cn2)c1 [Example 26, N,N-dimethyl-4-(6-((5-(N-methylpropan-2-ylsulfonamido)pyridin-3-yl)amino)pyridin-3-yl)benzamide] | 7.00 to 8.00
15 | CC(C)N(c1cncc(Nc2ccc(-c3ccc(C(=O)N(C)C)cc3)cn2)c1)S(C)(=O)=O [Example 27, 4-(6-((5-(N-isopropylmethylsulfonamido)pyridin-3-yl)amino)pyridin-3-yl)-N,N-dimethylbenzamide] | 6.00 to 7.00
16 | CN(C)C(=O)c1ccc(-c2ccc(Nc3cncc(C#N)c3)nc2)cc1 [Example 30, 4-(6-((5-cyanopyridin-3-yl)amino)pyridin-3-yl)-N,N-dimethylbenzamide] | 6.00 to 7.00
17 | CN(C)C(=O)c1ccc(-c2ccc(Nc3cncnc3)nc2)cc1 [Example 32, N,N-dimethyl-4-(6-(pyrimidin-5-ylamino)pyridin-3-yl)benzamide] | 6.00 to 7.00
18 | Cc1ncc(Nc2ccc(-c3ccc(C(=O)N(C)C)cc3)cn2)cn1 [Example 33, N,N-dimethyl-4-(6-((2-methylpyrimidin-5-yl)amino)pyridin-3-yl)benzamide] | < 6.00
19 | Cc1ncccc1Nc1ccc(-c2ccc(C(=O)N(C)C)cc2)cn1 [Example 35, N,N-dimethyl-4-(6-((2-methylpyridin-3-yl)amino)pyridin-3-yl)benzamide] | < 6.00
20 | CN(C)C(=O)c1ccc(-c2ccc(Nc3cnccn3)nc2)cc1 [Example 36, N,N-dimethyl-4-(6-(pyrazin-2-ylamino)pyridin-3-yl)benzamide] | < 6.00
21 | CN(C)C(=O)c1ccc(-c2ccc(Nc3cncc(C(=O)N(C)C)c3)nc2)cc1 [Example 37, 5-((5-(4-(dimethylcarbamoyl)phenyl)pyridin-2-yl)amino)-N,N-dimethylnicotinamide] | < 6.00
22 | CN(C)C(=O)c1ccc(-c2ccc(Nc3cncc(N4CCCC4=O)c3)nc2)cc1 [Example 38, N,N-dimethyl-4-(6-((5-(2-oxopyrrolidin-1-yl)pyridin-3-yl)amino)pyridin-3-yl)benzamide] | 7.00 to 8.00

Continued, values first:

Row | pIC50 | SMILES
23 | < 6.00 | Cc1cc(C(=O)N(C)C)ccc1-c1ccc(Nc2cccnc2)nc1 [Example 2, N,N,3-trimethyl-4-(6-(pyridin-3-ylamino)pyridin-3-yl)benzamide]
24 | < 6.00 | CN(C)C(=O)C1CC=C(c2ccc(Nc3cccnc3)nc2)CC1 (stereo not drawn) [Example 6, N,N-dimethyl-4-(6-(pyridin-3-ylamino)pyridin-3-yl)cyclohex-3-ene-1-carboxamide]
25 | 7.00 to 8.00 | CN(C)C(=O)c1ccc(-c2ccc(Nc3cncc(N4CCCC4=O)c3)nc2)cc1F [Example 12, 2-fluoro-N,N-dimethyl-4-(6-((5-(2-oxopyrrolidin-1-yl)pyridin-3-yl)amino)pyridin-3-yl)benzamide]
26 | 7.00 to 8.00 | CN(C)C(=O)c1ccc(-c2ccc(Nc3cncc(N4CCCC4=O)c3)nc2)c(F)c1 [Example 13, 3-fluoro-N,N-dimethyl-4-(6-((5-(2-oxopyrrolidin-1-yl)pyridin-3-yl)amino)pyridin-3-yl)benzamide]
27 | 6.00 to 7.00 | Cc1cc(Nc2cccnc2)ncc1-c1ccc(C(=O)N(C)C)cc1 [Example 16, N,N-dimethyl-4-(4-methyl-6-(pyridin-3-ylamino)pyridin-3-yl)benzamide]
28 | 6.00 to 7.00 | CN(C)C(=O)c1ccc(-c2cnc(Nc3cncc(N4CCCC4=O)c3)cn2)cc1 [Example 19, N,N-dimethyl-4-(5-((5-(2-oxopyrrolidin-1-yl)pyridin-3-yl)amino)pyrazin-2-yl)benzamide]
29 | 6.00 to 7.00 | CN(C)C(=O)c1ccc(-c2cnc(Nc3cncc(N4CCCC4=O)c3)cn2)cc1F [Example 20, 2-fluoro-N,N-dimethyl-4-(5-((5-(2-oxopyrrolidin-1-yl)pyridin-3-yl)amino)pyrazin-2-yl)benzamide]
30 | 6.00 to 7.00 | CN(C)C(=O)c1ccc(-c2cnc(Nc3cncc(N4CCCC4=O)c3)cn2)c(F)c1 [Example 21, 3-fluoro-N,N-dimethyl-4-(5-((5-(2-oxopyrrolidin-1-yl)pyridin-3-yl)amino)pyrazin-2-yl)benzamide]
31 | < 6.00 | CN(C)C(=O)c1cc(F)c(-c2cnc(Nc3cncc(N4CCCC4=O)c3)cn2)cc1F [Example 22, 2,5-difluoro-N,N-dimethyl-4-(5-((5-(2-oxopyrrolidin-1-yl)pyridin-3-yl)amino)pyrazin-2-yl)benzamide]
32 | 8.00 to 9.00 | CN(C)C(=O)c1ccc(-c2cnc(Nc3cncc(N4CCN(Cc5ccccc5)C4=O)c3)cn2)cc1 [Example 23, 4-(5-((5-(3-benzyl-2-oxoimidazolidin-1-yl)pyridin-3-yl)amino)pyrazin-2-yl)-N,N-dimethylbenzamide]
33 | 7.00 to 8.00 | CN(C)C(=O)c1ccc(-c2ccc(Nc3cncc(N(C)S(C)(=O)=O)c3)nc2)cc1 [Example 24, N,N-dimethyl-4-(6-((5-(N-methylmethylsulfonamido)pyridin-3-yl)amino)pyridin-3-yl)benzamide]
34 | 7.00 to 8.00 | CN(C)C(=O)c1ccc(-c2ccc(Nc3cncc(N(C4CC4)S(C)(=O)=O)c3)nc2)cc1 [Example 28, 4-(6-((5-(N-cyclopropylmethylsulfonamido)pyridin-3-yl)amino)pyridin-3-yl)-N,N-dimethylbenzamide]
35 | 7.00 to 8.00 | CC(=O)Nc1cncc(Nc2ccc(-c3ccc(C(=O)N(C)C)cc3)cn2)c1 [Example 31, 4-(6-((5-acetamidopyridin-3-yl)amino)pyridin-3-yl)-N,N-dimethylbenzamide]
36 | 6.00 to 7.00 | COc1ncc(Nc2ccc(-c3ccc(C(=O)N(C)C)cc3)cn2)cn1 [Example 34, 4-(6-((2-methoxypyrimidin-5-yl)amino)pyridin-3-yl)-N,N-dimethylbenzamide]
